Measurements reported in the NIST ThermoML archive (doi:10.1016/j.jct.2012.06.012).

Assay: xn = mol fraction of the nth substance listed
Details: Liquid, Vibrating tube method

CCCCCCCCCC [decane] + CCO
Details	mass density [kg/m3]
362.64 K, 11000 kPa, x2 = 0.1011	686.5
362.64 K, 11000 kPa, x2 = 0.4963	692.75
362.64 K, 11000 kPa, x2 = 0.9014	719.95
362.64 K, 12000 kPa, x2 = 0.1011	687.56
362.64 K, 12000 kPa, x2 = 0.4963	693.89
362.64 K, 12000 kPa, x2 = 0.9014	721.13
362.64 K, 13000 kPa, x2 = 0.1011	688.62
362.64 K, 13000 kPa, x2 = 0.4963	694.99
362.64 K, 13000 kPa, x2 = 0.9014	722.28
362.64 K, 14000 kPa, x2 = 0.1011	689.68
362.64 K, 14000 kPa, x2 = 0.4963	696.14
362.64 K, 14000 kPa, x2 = 0.9014	723.43
362.64 K, 15000 kPa, x2 = 0.1011	690.66
362.64 K, 15000 kPa, x2 = 0.4963	697.17
362.64 K, 15000 kPa, x2 = 0.9014	724.55
362.64 K, 16000 kPa, x2 = 0.1011	691.66
362.64 K, 16000 kPa, x2 = 0.4963	698.23
362.64 K, 16000 kPa, x2 = 0.9014	725.65
362.64 K, 17000 kPa, x2 = 0.1011	692.65
362.64 K, 17000 kPa, x2 = 0.4963	699.27
362.64 K, 17000 kPa, x2 = 0.9014	726.75
362.64 K, 18000 kPa, x2 = 0.1011	693.62
362.64 K, 18000 kPa, x2 = 0.4963	700.3
362.64 K, 18000 kPa, x2 = 0.9014	727.82
362.64 K, 19000 kPa, x2 = 0.1011	694.56
362.64 K, 19000 kPa, x2 = 0.4963	701.3
362.64 K, 19000 kPa, x2 = 0.9014	728.87
362.64 K, 20000 kPa, x2 = 0.1011	695.5
362.64 K, 20000 kPa, x2 = 0.4963	702.3
362.64 K, 20000 kPa, x2 = 0.9014	729.9
362.65 K, 1000 kPa, x2 = 0.0937	675.13
362.65 K, 2000 kPa, x2 = 0.0937	676.3
362.65 K, 3000 kPa, x2 = 0.0937	677.46
362.65 K, 4000 kPa, x2 = 0.0937	678.6
362.65 K, 5000 kPa, x2 = 0.0937	679.76
362.65 K, 6000 kPa, x2 = 0.0937	680.91
362.65 K, 7000 kPa, x2 = 0.0937	682.04
362.65 K, 8000 kPa, x2 = 0.0937	683.16
362.65 K, 9000 kPa, x2 = 0.0937	684.25
362.65 K, 10000 kPa, x2 = 0.0937	685.35
362.65 K, 11000 kPa, x2 = 0.0937	686.41
362.65 K, 12000 kPa, x2 = 0.0937	687.48
362.65 K, 13000 kPa, x2 = 0.0937	688.51
362.65 K, 14000 kPa, x2 = 0.0937	689.55
362.65 K, 15000 kPa, x2 = 0.0937	690.57
362.65 K, 16000 kPa, x2 = 0.0937	691.56
362.65 K, 17000 kPa, x2 = 0.0937	692.56
362.65 K, 18000 kPa, x2 = 0.0937	693.53
362.65 K, 19000 kPa, x2 = 0.0937	694.47
362.65 K, 20000 kPa, x2 = 0.0937	695.39
362.71 K, 1000 kPa, x2 = 0.7526	692.67
362.71 K, 2000 kPa, x2 = 0.7526	693.99
362.71 K, 3000 kPa, x2 = 0.7526	695.3
362.71 K, 4000 kPa, x2 = 0.7526	696.58
362.71 K, 5000 kPa, x2 = 0.7526	697.86
362.71 K, 6000 kPa, x2 = 0.7526	699.12
362.71 K, 7000 kPa, x2 = 0.7526	700.37
362.71 K, 8000 kPa, x2 = 0.7526	701.6
362.71 K, 9000 kPa, x2 = 0.7526	702.81
362.71 K, 10000 kPa, x2 = 0.7526	704.01
362.71 K, 11000 kPa, x2 = 0.7526	705.19
362.71 K, 12000 kPa, x2 = 0.7526	706.37
362.71 K, 13000 kPa, x2 = 0.7526	707.51
362.71 K, 14000 kPa, x2 = 0.7526	708.68
362.71 K, 15000 kPa, x2 = 0.7526	709.76
362.71 K, 16000 kPa, x2 = 0.7526	710.84
362.71 K, 17000 kPa, x2 = 0.7526	711.92
362.71 K, 18000 kPa, x2 = 0.7526	712.98
362.71 K, 19000 kPa, x2 = 0.7526	714.02
362.71 K, 20000 kPa, x2 = 0.7526	715.03
362.8 K, 1000 kPa, x2 = 0.2507	676.12
362.8 K, 2000 kPa, x2 = 0.2507	677.34
362.8 K, 3000 kPa, x2 = 0.2507	678.55
362.8 K, 4000 kPa, x2 = 0.2507	679.73
362.8 K, 5000 kPa, x2 = 0.2507	680.92
362.8 K, 6000 kPa, x2 = 0.2507	682.09
362.8 K, 7000 kPa, x2 = 0.2507	683.25
362.8 K, 8000 kPa, x2 = 0.2507	684.4
362.8 K, 9000 kPa, x2 = 0.2507	685.54
362.8 K, 10000 kPa, x2 = 0.2507	686.66
362.8 K, 11000 kPa, x2 = 0.2507	687.77
362.8 K, 12000 kPa, x2 = 0.2507	688.85
362.8 K, 13000 kPa, x2 = 0.2507	689.91
362.8 K, 14000 kPa, x2 = 0.2507	691.02
362.8 K, 15000 kPa, x2 = 0.2507	692.02
362.8 K, 16000 kPa, x2 = 0.2507	693.05
362.8 K, 17000 kPa, x2 = 0.2507	694.06
362.8 K, 18000 kPa, x2 = 0.2507	695.04
362.8 K, 19000 kPa, x2 = 0.2507	696.01
362.8 K, 20000 kPa, x2 = 0.2507	696.96
